Experimental data as given in the NIST ThermoML archive (doi:10.1016/j.fluid.2008.10.003).
± gives the expanded uncertainty stated by the source.

Assay: isobaric coefficient of expansion; xn = mol fraction of the nth substance listed
Conditions: 298.15 K, calorimetric method

For CCCCCCO [hexan-1-ol] + CCCCCC, the “isobaric coefficient of expansion” value (30000 kPa, x1 = 0.0321) was 0.00107 ± 4.5e-05 1/K, the “isobaric coefficient of expansion” value (30000 kPa, x1 = 0.041) was 0.00108 ± 4.6e-05 1/K and the “isobaric coefficient of expansion” value (30000 kPa, x1 = 0.0946) was 0.00106 ± 4.5e-05 1/K. For the same molecule, the “isobaric coefficient of expansion” value (30000 kPa, x1 = 0.1679) was 0.00104 ± 4.4e-05 1/K, the “isobaric coefficient of expansion” value (30000 kPa, x1 = 0.2153) was 0.00102 ± 4.3e-05 1/K and the “isobaric coefficient of expansion” value (30000 kPa, x1 = 0.3016) was 0.000984 ± 4.2e-05 1/K. For the same molecule, the “isobaric coefficient of expansion” value (30000 kPa, x1 = 0.4075) was 0.000957 ± 4.1e-05 1/K, the “isobaric coefficient of expansion” value (30000 kPa, x1 = 0.503) was 0.000928 ± 3.9e-05 1/K and the “isobaric coefficient of expansion” value (30000 kPa, x1 = 0.594) was 0.000897 ± 3.8e-05 1/K. For the same molecule, the “isobaric coefficient of expansion” value (30000 kPa, x1 = 0.6827) was 0.000868 ± 3.7e-05 1/K, the “isobaric coefficient of expansion” value (30000 kPa, x1 = 0.8013) was 0.00083 ± 3.5e-05 1/K and the “isobaric coefficient of expansion” value (30000 kPa, x1 = 0.8934) was 0.000797 ± 3.4e-05 1/K. The “isobaric coefficient of expansion” value (30000 kPa, x1 = 1) was 0.000764 ± 3.2e-05 1/K, the “isobaric coefficient of expansion” value (35000 kPa, x1 = 0.0321) was 0.00104 ± 4.4e-05 1/K and the “isobaric coefficient of expansion” value (35000 kPa, x1 = 0.041) was 0.00104 ± 4.4e-05 1/K. For the same molecule, the “isobaric coefficient of expansion” value (35000 kPa, x1 = 0.0946) was 0.00103 ± 4.4e-05 1/K, the “isobaric coefficient of expansion” value (35000 kPa, x1 = 0.1679) was 0.00101 ± 4.3e-05 1/K and the “isobaric coefficient of expansion” value (35000 kPa, x1 = 0.2153) was 0.000988 ± 4.2e-05 1/K. The “isobaric coefficient of expansion” value (35000 kPa, x1 = 0.3016) was 0.000958 ± 4.1e-05 1/K, the “isobaric coefficient of expansion” value (35000 kPa, x1 = 0.4075) was 0.00093 ± 3.9e-05 1/K and the “isobaric coefficient of expansion” value (35000 kPa, x1 = 0.503) was 0.000904 ± 3.8e-05 1/K. For the same molecule, the “isobaric coefficient of expansion” value (35000 kPa, x1 = 0.594) was 0.000873 ± 3.7e-05 1/K, the “isobaric coefficient of expansion” value (35000 kPa, x1 = 0.6827) was 0.000846 ± 3.6e-05 1/K and the “isobaric coefficient of expansion” value (35000 kPa, x1 = 0.8013) was 0.000809 ± 3.4e-05 1/K. The “isobaric coefficient of expansion” value (35000 kPa, x1 = 0.8934) was 0.000781 ± 3.3e-05 1/K, the “isobaric coefficient of expansion” value (35000 kPa, x1 = 1) was 0.000749 ± 3.2e-05 1/K and the “isobaric coefficient of expansion” value (40000 kPa, x1 = 0.0321) was 0.00101 ± 4.3e-05 1/K. For the same molecule, the “isobaric coefficient of expansion” value (40000 kPa, x1 = 0.041) was 0.00101 ± 4.3e-05 1/K, the “isobaric coefficient of expansion” value (40000 kPa, x1 = 0.0946) was 0.000999 ± 4.2e-05 1/K and the “isobaric coefficient of expansion” value (40000 kPa, x1 = 0.1679) was 0.000977 ± 4.1e-05 1/K. For the same molecule, the “isobaric coefficient of expansion” value (40000 kPa, x1 = 0.2153) was 0.000962 ± 4.1e-05 1/K, the “isobaric coefficient of expansion” value (40000 kPa, x1 = 0.3016) was 0.000935 ± 4e-05 1/K and the “isobaric coefficient of expansion” value (40000 kPa, x1 = 0.4075) was 0.000912 ± 3.9e-05 1/K. For the same molecule, the “isobaric coefficient of expansion” value (40000 kPa, x1 = 0.503) was 0.000879 ± 3.7e-05 1/K, the “isobaric coefficient of expansion” value (40000 kPa, x1 = 0.594) was 0.000856 ± 3.6e-05 1/K and the “isobaric coefficient of expansion” value (40000 kPa, x1 = 0.6827) was 0.000827 ± 3.5e-05 1/K. The “isobaric coefficient of expansion” value (40000 kPa, x1 = 0.8013) was 0.000792 ± 3.4e-05 1/K, the “isobaric coefficient of expansion” value (40000 kPa, x1 = 0.8934) was 0.000763 ± 3.2e-05 1/K and the “isobaric coefficient of expansion” value (40000 kPa, x1 = 1) was 0.000734 ± 3.1e-05 1/K. For the same molecule, the “isobaric coefficient of expansion” value (45000 kPa, x1 = 0.0321) was 0.00098 ± 4.2e-05 1/K, the “isobaric coefficient of expansion” value (45000 kPa, x1 = 0.041) was 0.000985 ± 4.2e-05 1/K and the “isobaric coefficient of expansion” value (45000 kPa, x1 = 0.0946) was 0.000969 ± 4.1e-05 1/K. The “isobaric coefficient of expansion” value (45000 kPa, x1 = 0.1679) was 0.00095 ± 4e-05 1/K, the “isobaric coefficient of expansion” value (45000 kPa, x1 = 0.2153) was 0.000936 ± 4e-05 1/K and the “isobaric coefficient of expansion” value (45000 kPa, x1 = 0.3016) was 0.000908 ± 3.9e-05 1/K. The “isobaric coefficient of expansion” value (45000 kPa, x1 = 0.4075) was 0.000888 ± 3.8e-05 1/K, the “isobaric coefficient of expansion” value (45000 kPa, x1 = 0.503) was 0.000864 ± 3.7e-05 1/K and the “isobaric coefficient of expansion” value (45000 kPa, x1 = 0.594) was 0.000836 ± 3.5e-05 1/K. The “isobaric coefficient of expansion” value (45000 kPa, x1 = 0.6827) was 0.000812 ± 3.4e-05 1/K, the “isobaric coefficient of expansion” value (45000 kPa, x1 = 0.8013) was 0.000778 ± 3.3e-05 1/K and the “isobaric coefficient of expansion” value (45000 kPa, x1 = 0.8934) was 0.000751 ± 3.2e-05 1/K. For the same molecule, the “isobaric coefficient of expansion” value (45000 kPa, x1 = 1) was 0.000724 ± 3.1e-05 1/K, the “isobaric coefficient of expansion” value (50000 kPa, x1 = 0.0321) was 0.000951 ± 4e-05 1/K and the “isobaric coefficient of expansion” value (50000 kPa, x1 = 0.041) was 0.000959 ± 4.1e-05 1/K. For the same molecule, the “isobaric coefficient of expansion” value (50000 kPa, x1 = 0.0946) was 0.000946 ± 4e-05 1/K, the “isobaric coefficient of expansion” value (50000 kPa, x1 = 0.1679) was 0.000926 ± 3.9e-05 1/K and the “isobaric coefficient of expansion” value (50000 kPa, x1 = 0.2153) was 0.000913 ± 3.9e-05 1/K. The “isobaric coefficient of expansion” value (50000 kPa, x1 = 0.3016) was 0.000883 ± 3.7e-05 1/K, the “isobaric coefficient of expansion” value (50000 kPa, x1 = 0.4075) was 0.000868 ± 3.7e-05 1/K and the “isobaric coefficient of expansion” value (50000 kPa, x1 = 0.503) was 0.000844 ± 3.6e-05 1/K. The “isobaric coefficient of expansion” value (50000 kPa, x1 = 0.594) was 0.000819 ± 3.5e-05 1/K, the “isobaric coefficient of expansion” value (50000 kPa, x1 = 0.6827) was 0.000794 ± 3.4e-05 1/K and the “isobaric coefficient of expansion” value (50000 kPa, x1 = 0.8013) was 0.000763 ± 3.2e-05 1/K. The “isobaric coefficient of expansion” value (50000 kPa, x1 = 0.8934) was 0.000739 ± 3.1e-05 1/K and the “isobaric coefficient of expansion” value (50000 kPa, x1 = 1) was 0.000712 ± 3e-05 1/K.
